Laboratory results from US20080306257A1, “Syntheses and Preparations of Narwedine and Related Novel Compounds” (priority 2005, published 2008).

What was measured:
Type in all cases: physicochemical
[1] = solubility of (−)-galanthamine hydrobromide in water
Method: (§1) It has been further observed that (−)-galanthamine hydrobromide can be further purified with high yield and without degradation of the material by crystallization in water in the presence of ammonium bromide. Lower yields are obtained using water in the absence of ammonium bromide due to the high solubility of (−)-galanthamine hydrobromide in water (about 50 mg/mL at room temperature and 300 mg/mL at reflux temperature).

[2] = racemization in THF solution; conditions: THF solution at approximately 0° C.
Method: Advantage of this aspect of invention include, among others, the reduction reaction of (−)-narwedine-BF3 complex can be carried out at approximately 0° C.

[3] = epimerization of (−)-galanthamine under acidic conditions; conditions: under acidic conditions (presence of hydrobromic acid)
Method: as §1

With `Br.COc1ccc2c3c1O[C@H]1C[C@@H](O)C=C[C@@]31CCN(C)C2` [(−)-galanthamine hydrobromide] the solubility in water ([1]; at reflux temperature) was roughly 300 mg/mL and the solubility in water ([1]; at room temperature) was “about 50 mg/mL”.

For “(−)-narwedine-BF3 complex [(−)-narwedine.BF3 complex]”, the “racemization (configurational stability)” value [2] was “racemizes very slowly”.

For `COc1ccc2c3c1O[C@H]1C[C@@H](O)C=C[C@@]31CCN(C)C2` [(−)-galanthamine, (4aS,6R,8aS)-4a,5,9,10,11,12-hexahydro-3-methoxy-11-methyl-6H-benzofuro[3a,3,2-ef][2]benzazepin-6-ol], the “epimerization to (−)-epigalanthamine (stability)” value [3] was “rapidly epimerized”.
